Values quoted from earlier work as cited in patent publication US20220290237A1, “METHOD FOR PREDICTING THE RESPONSE OF ANTIPSYCHOTIC DRUGS” (INSERM (INSTITUT NATIONAL DE LA SANTÉ ET DE LA RECHERCHE …, priority 2019, published 2022).

Details: first episode psychosis patients; cited from earlier work

SMILES: Cc1cc2c(s1)Nc1ccccc1N=C2N1CCN(C)CC1 [olanzapine, 2-méthyl-4-(4-méthyl-1-pipérazinyl)-10H-thiéno[2,3-b][1,5]benzodiazepine]
- outcome after change from amisulpride to olanzapine: did not improve outcome for most of the patient
